From ChEMBL document CHEMBL5550114, “Disclosure of cinnamic acid/4,9-diaminoacridine conjugates as multi-stage antiplasmodial hits” (Bioorg Med Chem, 2024)
Activity calls are given as the source filed them. The calls are words filed in the database; no cut-off is given here.

How the values were obtained:
[1] = test system: Plasmodium falciparum; assay: Antiplasmodial activity against CQ-sensitive blood stage Plasmodium falciparum 3D7 infected in group B human erythrocytes assessed as parasitic growth inhibition measured after 48 hrs by flow cytometry; type: functional, organism-based; conditions: 3D7, Erythrocyte
[2] = test system: Plasmodium berghei; assay: Antiplasmodial activity against GFP-Luccon-fused liver stage Plasmodium berghei infected in human Huh-7 cells assessed as parasitic growth inhibition at 10 uM measured after 48 hrs by bioluminescence assay; type: functional, organism-based
[3] = test system: Huh-7; assay: Cytotoxicity against human Huh-7 cells assessed as cell viability at 10 uM measured after 48 hrs by Alamar blue staining based analysis; type: toxicity; conditions: huh-7, 48 h
[4] = test system: Plasmodium berghei; assay: Antiplasmodial activity against GFP-Luccon-fused liver stage Plasmodium berghei infected in human Huh-7 cells assessed as parasitic growth inhibition at 1 uM measured after 48 hrs by bioluminescence assay; type: functional, organism-based
[5] = test system: Plasmodium falciparum; assay: Antiplasmodial activity against gametocyte stage Plasmodium falciparum NF54-gexp02-Tom infected in group B human erythrocytes assessed as parasitic growth inhibition measured after 15 days by Geimsa staining based analysis; type: functional, organism-based; conditions: Erythrocyte, 360 h
[6] = test system: Plasmodium falciparum; assay: Antiplasmodial activity against CQ-sensitive blood stage Plasmodium falciparum 3D7 assessed as parasitic growth inhibition; type: functional, organism-based
[7] = test system: Plasmodium berghei; assay: Antiplasmodial activity against GFP-Luccon-fused liver stage Plasmodium berghei infected in human Huh-7 cells assessed as parasitic growth inhibition measured after 48 hrs by Alamar blue staining based analysis; type: functional, organism-based; conditions: Huh-7, 48 h

CCN(CC)CCCC(C)Nc1c2ccc(Cl)cc2nc2c(NCCCCNC(=O)/C=C/c3ccc(F)cc3)cc(OC)cc12 (stereo not drawn)
IC50 [1]: 178 nM
inhibition [2]: Active
Activity [3]: Toxic
inhibition [4]: inactive
IC50 [5]: 645 nM

CCN(CC)CCCNc1c2ccc(Cl)cc2nc2c(NCCCCNC(=O)/C=C/c3cccc(F)c3)cc(OC)cc12
IC50 [1]: 161 nM
inhibition [2]: Active
Activity [3]: Toxic
inhibition [4]: inactive
IC50 [5]: ~430 nM

CCN(CC)CCCNc1c2ccc(Cl)cc2nc2c(NCCCCN)cc(OC)cc12
inhibition [2]: Active
Activity [3]: Non-Toxic
inhibition [4]: inactive
IC50 [6]: 440 nM

CCN(CC)CCCC(C)Nc1c2ccc(Cl)cc2nc2c(NCCCCNC(=O)/C=C/c3ccc(OC)cc3)cc(OC)cc12 (stereo not drawn)
IC50 [1]: 153 nM
inhibition [2]: Active
Activity [3]: Toxic
inhibition [4]: inactive

COc1ccc(/C=C/C(=O)NCCCCNc2cc(OC)cc3cc4ccc(Cl)cc4nc23)cc1
inhibition [2]: Active
inhibition [4]: inactive

CCN(CC)CCCC(C)Nc1c2ccc(Cl)cc2nc2c(NCCCCNC(=O)/C=C/c3ccccc3)cc(OC)cc12 (stereo not drawn)
IC50 [1]: 143 nM
inhibition [2]: Active
Activity [3]: Toxic
inhibition [4]: inactive
IC50 [5]: 461 nM

CCN(CC)CCCC(C)Nc1c2ccc(Cl)cc2nc2c(NCCCCN)cc(OC)cc12 (stereo not drawn)
inhibition [2]: Active
IC50 [7]: 11 µM
Activity [3]: Non-Toxic
inhibition [4]: inactive
IC50 [6]: 680 nM

CCN(CC)CCCNc1c2ccc(Cl)cc2nc2c(NCCCCNC(=O)/C=C/c3ccc(OC)cc3)cc(OC)cc12
IC50 [1]: 164 nM
inhibition [2]: Active
Activity [3]: Toxic
inhibition [4]: inactive
IC50 [5]: 474 nM

CCN(CC)CCCNc1c2ccc(Cl)cc2nc2c(NCCCCNC(=O)/C=C/c3ccc(F)cc3)cc(OC)cc12
IC50 [1]: 348 nM
inhibition [2]: Active
Activity [3]: Toxic
inhibition [4]: inactive

COc1cc(NCCCCNC(=O)/C=C/c2cccc(F)c2)c2nc3cc(Cl)ccc3cc2c1
inhibition [2]: Active
inhibition [4]: inactive

COc1cc(NCCCCNC(=O)/C=C/c2ccccc2)c2nc3cc(Cl)ccc3cc2c1
inhibition [2]: Active
inhibition [4]: inactive

COc1cc(NCCCCNC(=O)/C=C/c2ccc(F)cc2)c2nc3cc(Cl)ccc3cc2c1
inhibition [2]: Active
inhibition [4]: inactive

CCN(CC)CCCC(C)Nc1c2ccc(Cl)cc2nc2c(NCCCCNC(=O)/C=C/c3cccc(F)c3)cc(OC)cc12 (stereo not drawn)
IC50 [1]: 164 nM
inhibition [2]: Active
Activity [3]: Toxic
inhibition [4]: inactive

CCN(CC)CCCNc1c2ccc(Cl)cc2nc2c(NCCCCNC(=O)/C=C/c3ccccc3)cc(OC)cc12
IC50 [1]: 80 nM
inhibition [2]: Active
Activity [3]: Toxic
inhibition [4]: inactive

COc1cc(NC(C)CCCN)c2ncccc2c1 (stereo not drawn) [PRIMAQUINE]
inhibition [2]: Active
inhibition [4]: inactive
IC50 [5]: 17700 nM

CCN(CC)CCCC(C)Nc1ccnc2cc(Cl)ccc12 (stereo not drawn)
inhibition [2]: Active
inhibition [4]: inactive
